Results reported in patent publication US20240425501A1, “NOVEL BICYCLIC HETEROARYL DERIVATIVES AS SOS1:KRAS PROTEINPROTEIN INTERACTION INHIBITORS” (SATYARX PHARMA INNOVATIONS PVT LTD, priority 2021, published 2024).

The molecules below were run against T1, hSOS1 enzyme / KRAS (G12C), GST-Tag, GDP-bound protein (Homo sapiens, UniProt Q07889) (assay: SOS1-mediated KRAS guanine nucleotide exchange (GEF) assay, HTRF ("On Assay")). Settings: 1 μM compound.
T1 sequence (Q07889 564-1049 limits assumed): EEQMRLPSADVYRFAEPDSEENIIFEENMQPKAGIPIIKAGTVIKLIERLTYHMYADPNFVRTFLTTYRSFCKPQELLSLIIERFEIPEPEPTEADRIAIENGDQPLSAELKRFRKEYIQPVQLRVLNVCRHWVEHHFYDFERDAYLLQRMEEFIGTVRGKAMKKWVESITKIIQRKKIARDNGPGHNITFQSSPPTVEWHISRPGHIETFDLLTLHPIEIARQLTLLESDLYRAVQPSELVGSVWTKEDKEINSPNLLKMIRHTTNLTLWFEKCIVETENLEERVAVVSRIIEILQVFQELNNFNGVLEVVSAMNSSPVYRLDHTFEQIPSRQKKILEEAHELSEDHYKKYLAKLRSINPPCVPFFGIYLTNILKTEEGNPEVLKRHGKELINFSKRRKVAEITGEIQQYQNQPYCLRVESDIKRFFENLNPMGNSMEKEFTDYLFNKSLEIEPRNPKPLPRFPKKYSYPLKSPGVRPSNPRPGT
Assay type: biochemical
Method: Biochemical Assay: Measurement of SOS1-Mediated KRAS Guanine Nucleotide Exchange (GEF) Assay
This assay quantifies the HTRF-based SOS1 mediated guanine nucleotide exchange assay detecting GTP binding to KRAS (G12C), GST-Tag, GDP-bound protein. This is also referred as “On Assay”.The assay buffer composition is as follows: 10 mM HEPES pH-7, 150 mM NaCl, 5 mM MgCl2, 1 mM DTT, 0.05% BSA, 0.0025% IGEPAL CA-630 and MilliQ water. 0.5 μl of compounds diluted in assay buffer were dispensed into the respective wells of 384 black well test plate. 4.75 μl of KRAS working solution containing 100 nM KRAS (G12C), GST-Tag, GDP-bound protein GDP-loaded (Reaction biology) and 2 nM Anti GST-Tb cryptate (FRET donor, Cisbio) was added in assay buffer. The components were incubated for 10 min at 25° C.
4.75 μl of hSOS1 working solution containing 20 nM hSOS1 enzyme and 200 nM EDA-GTP-DY-647P (FRET acceptor, synthesized by Jena Bioscience (Germany), supplied as a 1 mM solution) was further added in assay buffer. 4.75 μl of inhibitor control having only 200 nM EDA-GTP-DY-647P1 component without hSOS1 working solution was added in the negative control well. The plate was short spun for few seconds and incubated for 10 min. HTRF was measured using Perkin Elmer-Nivo 5F multimode plate reader.
HTRF settings: EXCITATION FILTER—320/75 nm, EMISSION FILTER (1) —615/8 nm, EMISSION FILTER (2)—665/8 nm

Compound | inhibition at 1 µM [%]
C[C@@H](Nc1nc(Cl)nc2cnc(N3CCCC3)cc12)c1cc(N)cc(C(F)(F)F)c1 [Example 1, (R)—N-(1-(3-amino-5-(trifluoromethyl)phenyl)ethyl)-2-chloro-6-(pyrrolidin-1-yl)pyrido[3,4-d]pyrimidin-4-amine] | ≥ 50
C[C@@H](Nc1nc(N(C)C)nc2cnc(N3CCCC3)cc12)c1cc(N)cc(C(F)(F)F)c1 [Example 2, N4—(R)-(1-(3-amino-5-(trifluoromethyl)phenyl)ethyl)-N2,N2-dimethyl-6-(pyrrolidin-1-yl)pyrido[3,4-d]pyrimidine-2,4-diamine] | ≥ 50
COc1nc(N[C@H](C)c2cc(N)cc(C(F)(F)F)c2)c2cc(N3CCCC3)ncc2n1 [Example 3, (R)—N-(1-(3-amino-5-(trifluoromethyl)phenyl)ethyl)-2-methoxy-6-(pyrrolidin-1-yl)pyrido[3,4-d]pyrimidin-4-amine] | ≥ 50
COCCOc1nc(N[C@H](C)c2cc(N)cc(C(F)(F)F)c2)c2cc(N3CCCC3)ncc2n1 [Example 4, (R)—N-(1-(3-amino-5-(trifluoromethyl)phenyl)ethyl)-2-(2-methoxyethoxy)-6-(pyrrolidin-1-yl)pyrido[3,4-d]pyrimidin-4-amine] | ≥ 50
C[C@@H](Nc1nc(N2CCOCC2)nc2cnc(N3CCCC3)cc12)c1cc(N)cc(C(F)(F)F)c1 [Example 5, (R)—N-(1-(3-amino-5-(trifluoromethyl)phenyl)ethyl)-2-morpholino-6-(pyrrolidin-1-yl)pyrido[3,4-d]pyrimidin-4-amine] | < 50
C[C@@H](Nc1nc(N2CCN(C)CC2)nc2cnc(N3CCCC3)cc12)c1cc(N)cc(C(F)(F)F)c1 [Example 6, (R)—N-(1-(3-amino-5-(trifluoromethyl)phenyl)ethyl)-2-(4-methylpiperazin-1-yl)-6-(pyrrolidin-1-yl)pyrido[3,4-d]pyrimidin-4-amine] | < 50
CNc1nc(N[C@H](C)c2cc(N)cc(C(F)(F)F)c2)c2cc(N3CCCC3)ncc2n1 [Example 7, (R)—N4-(1-(3-amino-5-(trifluoromethyl)phenyl)ethyl)-N2-methyl-6-(pyrrolidin-1-yl)pyrido[3,4-d]pyrimidine-2,4-diamine] | ≥ 50
C[C@@H](Nc1nc(N(C)C)nc2cnc(N3CCOCC3)cc12)c1cc(N)cc(C(F)(F)F)c1 [Example 8, (R)—N4-(1-(3-amino-5-(trifluoromethyl)phenyl)ethyl)-N2,N2-dimethyl-6-morpholinopyrido[3,4-d]pyrimidine-2,4-diamine] | ≥ 50
C[C@@H](Nc1nc(NCCN(C)C)nc2cnc(N3CCCC3)cc12)c1cc(N)cc(C(F)(F)F)c1 [Example 9, (R)—N4-(1-(3-amino-5-(trifluoromethyl)phenyl)ethyl)-N2-(2-(dimethylamino)ethyl)-6-(pyrrolidin-1-yl)pyrido[3,4-d]pyrimidine-2,4-diamine] | ≥ 50
C[C@@H](Nc1nc(N(C)CCN(C)C)nc2cnc(N3CCCC3)cc12)c1cc(N)cc(C(F)(F)F)c1 [Example 10, (R)—N4-(1-(3-amino-5-(trifluoromethyl)phenyl)ethyl)-N2-(2-(dimethylamino)ethyl)-N2-methyl-6-(pyrrolidin-1-yl)pyrido[3,4-d]pyrimidine-2,4-diamine] | ≥ 50
C[C@@H](Nc1nc(OCCO)nc2cnc(N3CCCC3)cc12)c1cc(N)cc(C(F)(F)F)c1 [Example 11, (R)-2-((4-((1-(3-amino-5-(trifluoromethyl)phenyl)ethyl)amino)-6-(pyrrolidin-1-yl)pyrido[3,4-d]pyrimidin-2-yl)oxy)ethan-1-ol] | ≥ 50
C[C@@H](Nc1nc(NCCO)nc2cnc(N3CCCC3)cc12)c1cc(N)cc(C(F)(F)F)c1 [Example 12, (R)-2-((4-((1-(3-amino-5-(trifluoromethyl)phenyl)ethyl)amino)-6-(pyrrolidin-1-yl)pyrido[3,4-d]pyrimidin-2-yl)amino)ethan-1-ol] | ≥ 50
C[C@@H](Nc1nc(N(C)CCO)nc2cnc(N3CCCC3)cc12)c1cc(N)cc(C(F)(F)F)c1 [Example 13, (R)-2-((4-((1-(3-amino-5-(trifluoromethyl)phenyl)ethyl)amino)-6-(pyrrolidin-1-yl)pyrido[3,4-d]pyrimidin-2-yl)(methyl)amino)ethan-1-ol] | ≥ 50
COCCNc1nc(N[C@H](C)c2cc(N)cc(C(F)(F)F)c2)c2cc(N3CCCC3)ncc2n1 [Example 14, (R)—N4-(1-(3-amino-5-(trifluoromethyl)phenyl)ethyl)-N2-(2-methoxyethyl)-6-(pyrrolidin-1-yl)pyrido[3,4-d]pyrimidine-2,4-diamine] | ≥ 50
COCCN(C)c1nc(N[C@H](C)c2cc(N)cc(C(F)(F)F)c2)c2cc(N3CCCC3)ncc2n1 [Example 15, (R)—N4-(1-(3-amino-5-(trifluoromethyl)phenyl)ethyl)-N2-(2-methoxyethyl)-N2-methyl-6-(pyrrolidin-1-yl)pyrido[3,4-d]pyrimidine-2,4-diamine] | ≥ 50
C[C@@H](Nc1nc(N2CCC2)nc2cnc(N3CCCC3)cc12)c1cc(N)cc(C(F)(F)F)c1 [Example 16, (R)—N-(1-(3-amino-5-(trifluoromethyl)phenyl)ethyl)-2-(azetidin-1-yl)-6-(pyrrolidin-1-yl)pyrido[3,4-d]pyrimidin-4-amine] | ≥ 50
C[C@@H](Nc1nc(N2CCCC2)nc2cnc(N3CCCC3)cc12)c1cc(N)cc(C(F)(F)F)c1 [Example 17, (R)—N-(1-(3-amino-5-(trifluoromethyl)phenyl)ethyl)-2,6-di(pyrrolidin-1-yl)pyrido[3,4-d]pyrimidin-4-amine] | ≥ 50
CNc1nc(N[C@H](C)c2cc(N)cc(C(F)(F)F)c2)c2cc(N3CCOCC3)ncc2n1 [Example 18, (R)—N4-(1-(3-amino-5-(trifluoromethyl)phenyl)ethyl)-N2-methyl-6-morpholinopyrido[3,4-d]pyrimidine-2,4-diamine] | ≥ 50
C[C@@H](Nc1nc(Cl)nc2cnc(N3CCOCC3)cc12)c1cc(N)cc(C(F)(F)F)c1 [Example 19, (R)—N-(1-(3-amino-5-(trifluoromethyl)phenyl)ethyl)-2-chloro-6-morpholinopyrido[3,4-d]pyrimidin-4-amine] | ≥ 50
COC1CCN(c2cc3c(N[C@H](C)c4cc(N)cc(C(F)(F)F)c4)nc(Cl)nc3cn2)CC1 [Example 20, (R)—N-(1-(3-amino-5-(trifluoromethyl)phenyl)ethyl)-2-chloro-6-(4-methoxypiperidin-1-yl)pyrido[3,4-d]pyrimidin-4-amine] | ≥ 50
C[C@@H](Nc1nc(Cl)nc2cnc(N3CCC(F)(F)CC3)cc12)c1cc(N)cc(C(F)(F)F)c1 [Example 21, (R)—N-(1-(3-amino-5-(trifluoromethyl)phenyl)ethyl)-2-chloro-6-(4,4-difluoropiperidin-1-yl)pyrido[3,4-d]pyrimidin-4-amine] | ≥ 50
C[C@@H](Nc1nc(Cl)nc2cnc(N3CCC(F)CC3)cc12)c1cc(N)cc(C(F)(F)F)c1 [Example 22, (R)—N-(1-(3-amino-5-(trifluoromethyl)phenyl)ethyl)-2-chloro-6-(4-fluoropiperidin-1-yl)pyrido[3,4-d]pyrimidin-4-amine] | ≥ 50
C[C@@H](Nc1nc(Cl)nc2cnc(N3CCN(C)CC3)cc12)c1cc(N)cc(C(F)(F)F)c1 [Example 23, (R)—N-(1-(3-amino-5-(trifluoromethyl)phenyl)ethyl)-2-chloro-6-(4-methylpiperazin-1-yl)pyrido[3,4-d]pyrimidin-4-amine] | ≥ 50
CCN1CCN(c2cc3c(N[C@H](C)c4cc(N)cc(C(F)(F)F)c4)nc(Cl)nc3cn2)CC1 [Example 24, (R)—N-(1-(3-amino-5-(trifluoromethyl)phenyl)ethyl)-2-chloro-6-(4-ethylpiperazin-1-yl)pyrido[3,4-d]pyrimidin-4-amine] | ≥ 50
CC(C)N1CCN(c2cc3c(N[C@H](C)c4cc(N)cc(C(F)(F)F)c4)nc(Cl)nc3cn2)CC1 [Example 25, (R)—N-(1-(3-amino-5-(trifluoromethyl)phenyl)ethyl)-2-chloro-6-(4-isopropylpiperazin-1-yl)pyrido[3,4-d]pyrimidin-4-amine] | ≥ 50
